From patent US7211581B2, “Substituted 2-(diaza-bicyclo-alkyl)-pyrimidone derivatives” (Sanofi-Aventis, priority 2003, dated 2007)
Counter-ions that a name gives are not always drawn.

What was measured:
GSK3β = GSK3β (Homo sapiens, UniProt P49841); assay: Inhibitory activity against GSK3β (33P-ATP phosphorylation of prephosphorylated GS1 peptide, two protocols); assay type: biochemical
Experimental: Inhibitory Activity of the Medicament of the Present Invention Against GSK3β Two different protocols can be used. In a first protocol: 7.5 μM of prephosphorylated GS1 peptide and 10 μM ATP (containing 300,000 cpm of ^33P-ATP) were incubated in 25 mM Tris-HCl, pH 7.5, 0.6 mM DTT, 6 mM MgCl2, 0.6 mM EGTA, 0.05 mg/ml BSA buffer for 1 hour at room temperature in the presence of GSK3beta (total reaction volume: 100 microliters). In a second protocol: 4.1 μM of prephosphorylated GS 1 peptide and 42 μM ATP (containing 260,000 cpm ^33P-ATP) were incubated in 80 mM Mes-NaOH, pH 6.5, 1 mM Mg acetate, 0.5 mM EGTA, 5 mM 2-mercaptoethanol, 0.02% Tween 20, 10% glycerol buffer for 2 hours at room temperature in the presence of GSK3beta. Inhibitors were solubilised in DMSO (final solvent concentration in the reaction medium, 1%). The reaction was stopped with 100 microliters of a solution made of 25 g polyphosphoric acid (85% P2O5), 126 ml 85% H3PO4, H2O to 500 ml and then diluted to 1:100 before use. An aliquot of the reaction mixture was then transferred to Whatman P81 cation exchange filters and rinsed with the solution described above. Incorporated 33P radioactivity was determined by liquid scintillation spectrometry. The phosphorylated GS-1 peptide had the following sequence: • NH2-[…](P)EDEE-COOH.

Chain of GSK3β (P49841 whole entry, species assumed): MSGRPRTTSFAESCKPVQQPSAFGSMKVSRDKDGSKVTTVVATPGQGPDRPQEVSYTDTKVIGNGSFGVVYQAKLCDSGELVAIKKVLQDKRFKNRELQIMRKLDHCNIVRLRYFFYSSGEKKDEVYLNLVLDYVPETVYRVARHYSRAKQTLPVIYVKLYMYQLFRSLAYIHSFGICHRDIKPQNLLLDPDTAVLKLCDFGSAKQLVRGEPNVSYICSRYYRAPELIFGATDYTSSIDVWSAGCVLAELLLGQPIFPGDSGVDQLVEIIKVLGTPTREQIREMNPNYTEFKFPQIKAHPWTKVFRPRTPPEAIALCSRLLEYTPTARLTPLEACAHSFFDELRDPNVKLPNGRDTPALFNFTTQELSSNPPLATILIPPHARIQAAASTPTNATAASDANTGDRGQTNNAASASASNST

| SMILES | melting point | IC50 (GSK3β) |
| --- | --- | --- |
| Cn1c(N2CC3C[C@H]2CN3)nc(-c2ccncn2)cc1=O (as salt: hydrochloride) | 275 to 277 °C | – |
| Cn1c(N2CC3C[C@H]2CN3)nc(-c2ccncc2)cc1=O (as salt: hydrochloride) | 240 to 242 °C | – |
| Cc1ccc(N2C[C@@H]3CC2CN3c2nc(-c3ccncc3)cc(=O)n2C)cc1 [4′, (1S)-3-Methyl-6-pyridin-4-yl-2-(5-p-tolyl-2,5-diaza-bicyclo[2.2.1]hept-2-yl)-3H-pyrimidin-4-one] | 123 to 125 °C | 4 nM |
| Cn1c(N2CC3C[C@H]2CN3C(=O)c2ccc(Br)cc2)nc(-c2ccncn2)cc1=O [Compound 24, (1S)-2-(5-(4-Bromo-benzoyl)-2,5-diaza-bicyclo[2.2.1]hept-2-yl)-1-methyl-1H-[4,4′]bipyrimidinyl-6-one] | 142 to 144 °C | 6 nM |
